19 compounds from PubChem BioAssay (NCI) can be followed below.

Values joined by “and” are separate entries in the source; they are usually repeats but may differ in a detail not shown here. Equal entries are not always repeated.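 Growth conditions: 96-well plates. Treatment: test compound, 48 hours, 5 concentrations. Analysis: linear interpolation between bracketing concentrations; unreached endpoints set to highest concentration. Abbreviation: GI50, concentration required for 50% inhibition of growth. At the TGI there is no net growth.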

Common to all, as to test: growth of human tumour cells (NCI), 48 h
The subject of assay [1] is A549 NSCLC.
Assay [2] deals with EKVX NSCLC.
The test system of assay [3] is HCC-2998 colon.
The subject of assay [4] is HCT-15 colon.
Assay [5] has as its system HT29 colon.
The test system of assay [6] is IGROV1 ovarian.
Assay [7] has as its system RPMI-8226 leukemia.
Assay [8] has as its system SF-295 CNS.
The subject of assay [9] is SR leukemia.
Assay [10] relates to TK-10 renal.

In the case of `O=C(CCl)Nc1cc(Cl)c(Cl)cc1Cl`, the TGI in assay [1] was 4.56 µM; in [2], 4.67 µM; in [3] it was over 10 µM; in [4], 4.3 µM; in [5] it was 3.7 µM; in [6], 3.3 µM. Besides, the TGI is over 10 µM in assay [7], over 10 µM in assay [8], over 10 µM in [9] and 3.27 µM in [10].

Regarding `O=C1C=CC(=Nc2cccc3c(N=C4C=CC(=O)O4)cccc23)O1`, the TGI was over 100 µM in assay [1]; 35.2 µM in [2]; over 100 µM in assay [3]; over 100 µM in assay [4]; over 100 µM in assay [5]; over 100 µM in assay [6]. Besides, the TGI in [7] is 58.2 µM; in assay [8], over 100 µM; in [9] it was 48.1 µM; in [10], 33.3 µM.

With `CC[C@]1(O)CC2CN(CCc3c([nH]c4ccccc34)[C@@](C(=O)OC)(c3cc4c(cc3OC)N(C=O)[C@H]3[C@@](O)(C(=O)OC)[C@H](OC(C)=O)[C@]5(CC)C=CCN6CC[C@]43[C@@H]65)C2)C1` (some centres undefined), the GI50 in assay [1] is 0.0172 µM; in [2], over 30.8 µM; in [3] it was under 0.005 µM; in [5] it was under 0.005 µM; in assay [6], 0.0334 µM; in [7] it was under 0.005 µM. Also, the GI50 in assay [8] was under 0.005 µM; in [9] it was under 0.005 µM; in assay [10], 0.0192 µM. In addition, the TGI in assay [1] was over 50 µM; in assay [2], over 50 µM; in [4] it was over 50 µM; in assay [5], 0.0195 µM; in [6], over 50 µM; in assay [7], 17.8 µM. The TGI was 1.35 µM in assay [8], over 50 µM in assay [9] and 9.86 µM in assay [10].

Consider `C/C(=N/O)c1ccc2c(c1)/C(=N/O)c1ccccc1-2`, for which the GI50 in [1] was 24 µM; in assay [2], 21.2 µM; in assay [3] it was 20.3 µM; in assay [4] it was 17.1 µM; in [5], 18.2 µM; in assay [6], 22.3 µM. Also, the GI50 in assay [7] is 22.5 µM; in assay [8], 22.6 µM; in assay [9] it was 12.5 µM; in assay [10] it was 26.7 µM. Further, the TGI in [1] was 62.9 µM; in assay [2], 66.1 µM; in [3], 35.9 µM; in assay [4], 33.7 µM; in [5], 40.7 µM; in [6], 41.1 µM. Further, the TGI in [7] was determined as 48.8 µM; in assay [8] it was 50.4 µM; in assay [9], 31.8 µM; in assay [10] it was 67.2 µM.

`O=C(/C=C/C(Cl)(Cl)Cl)Nc1ccc(Cl)cc1`: the TGI amounted to 8.98 µM in [1]; 13.7 µM in assay [2]; 14.5 µM in assay [3]; 11.4 µM in [4]; 4.03 µM in assay [5]; 1.82 µM in assay [6]. Moreover, the TGI amounted to 3.85 µM in assay [7], 28.8 µM in assay [8], 3.25 µM in assay [9] and 5.73 µM in [10].

Turning to `CN(C)Cc1ccc(C(C)(C)C)cc1-c1cc(C(C)(C)C)ccc1CN(C)C`, the TGI was over 100 µM in [1]; over 100 µM in assay [2]; 30.2 µM in assay [3]; over 100 µM in assay [4]; over 100 µM in [5]; over 100 µM in assay [6]. Also, the TGI in [7], in assay [8], in assay [9] and in [10] was over 100 µM each time.

Turning to `CC(C)(C)NC(=O)[C@H]1CC[C@H]2[C@@H]3CC[C@H]4NC(=O)C=C[C@]4(C)[C@H]3CC[C@]12C`, the GI50 in assay [1] was over 100 µM; in assay [2], 70.1 µM and > 100 µM; in [3], over 100 µM; in assay [4] it was over 100 µM; in assay [5] it was 44.9 µM and 69.6 µM; in assay [6] it was over 100 µM. Also, the GI50 in assay [7] was 42.8 µM and 67.2 µM; in assay [8] it was over 100 µM; in assay [9], over 100 µM; in [10], over 100 µM. Further, the TGI in assay [1], in [2], in assay [3], in assay [4], in [5] and in [6] was over 100 µM each time. Moreover, the TGI in [7], in assay [8], in assay [9] and in [10] was over 100 µM in each case.

In the case of `CC1=C(C(=O)NCc2ccccc2)C(c2ccccc2C)C(C(=O)NCc2ccccc2)=C(C)N1`, the TGI in assay [1] is over 100 µM; in assay [2], over 100 µM; in [3], over 60 µM; in assay [4], 36.6 µM; in [5] it was 73 µM; in assay [6], over 72.3 µM. Besides, the TGI was over 100 µM in assay [7], over 85.5 µM in assay [8], 81.1 µM in assay [9] and 99.6 µM in [10].

Take `NC(=O)CC1(O)C=C(Br)C(=O)C(Br)=C1`: the GI50 in assay [1] was 19 µM; in assay [2], 5.84 µM; in [3], 18.2 µM; in assay [4] it was 2.65 µM; in [5], 4.03 µM; in [6] it was 6.57 µM. Also, the GI50 in assay [7] is 2.25 µM; in [8] it was 12.6 µM; in [9] it was 1.7 µM; in [10], 1.65 µM. For the same compound, the TGI in assay [1] amounted to 37.8 µM; in assay [2], 19.7 µM; in [3], 33 µM; in assay [4], 7.75 µM; in assay [5], 19 µM; in assay [6], 30 µM. In addition, the TGI in assay [7] is 6.82 µM; in assay [8], 26.5 µM; in [9], 14.2 µM; in assay [10], 4.2 µM.

For `COc1cc2c(cc1O)CN1CCC23C=C[C@@H](O)CC13` (some centres undefined), the TGI in assay [1], in assay [2], in [3], in assay [4], in assay [5] and in [6] was over 100 µM throughout. The TGI in [7], in assay [8], in [9] and in assay [10] was over 100 µM each time.

For the compound `CN1CCN(c2ccc(NC(=O)c3cncnc3Nc3ccc(OCc4cccc(F)c4)c(Cl)c3)cc2)CC1`, the GI50 in [1] is 1.51 µM; in [2], 10.9 µM; in assay [3], 1.13 µM; in assay [4], 0.889 µM; in [5] it was 1.1 µM; in assay [6] it was 1.78 µM. Also, the GI50 is 1.26 µM in assay [7], 6.51 µM in [8], 0.939 µM in assay [9] and 22.4 µM in assay [10]. For the same compound, the TGI in [1] was 5.05 µM; in assay [2] it was over 50 µM; in assay [3], 2.7 µM; in assay [4], 1.91 µM; in [5], 2.65 µM; in [6] it was over 50 µM. The TGI is 3.32 µM in assay [7], 16.5 µM in [8], 2.46 µM in assay [9] and over 50 µM in assay [10].

On to `COc1ccc(Cn2cc3c(c2)-c2oncc2CC3)cc1OC`, for which the GI50 in assay [1] is 0.283 µM; in assay [2], 0.233 µM; in assay [3], 0.172 µM; in assay [4], 0.214 µM; in [5] it was 0.153 µM; in assay [6], 0.391 µM. Further, the GI50 is 0.19 µM in assay [7], 0.15 µM in assay [8], 0.164 µM in assay [9] and 0.453 µM in [10]. In addition, the TGI in assay [1] is 48.4 µM; in assay [2], over 33.7 µM; in assay [3] it was 2.54 µM; in [4], over 50 µM; in assay [5] it was 1.28 µM; in assay [6] it was over 46.3 µM. The TGI in [8] is 1.71 µM; in [10], over 50 µM.

In the case of `O=C(Nc1ccccc1C(F)(F)F)c1ccc(NC2=C(Cl)C(=O)N(Cc3ccccc3)C2=O)cc1`, the GI50 in assay [1] was 40.5 µM; in assay [2] it was 86.9 µM; in [3] it was 16.3 µM; in assay [4], 4.19 µM; in [5] it was over 100 µM; in assay [6], 19.3 µM. Besides, the GI50 was 8.4 µM in assay [7], 31.8 µM in assay [8], 1.85 µM in assay [9] and 17.6 µM in assay [10]. In addition, the TGI in assay [1] is over 100 µM; in assay [2] it was over 100 µM; in [3], 35.6 µM; in assay [4], over 100 µM; in assay [5], over 100 µM; in [6], 65.9 µM. Further, the TGI is over 100 µM in assay [7], over 100 µM in [8], 3.86 µM in assay [9] and 52.5 µM in assay [10].

On to `O=C(COc1ccc(OCC(=O)N2C(=O)CN(c3ccccc3)C2=S)cc1)N1C(=O)CN(c2ccccc2)C1=S`, for which the GI50 in assay [1] was over 25 µM; in assay [2] it was over 25 µM; in assay [3], over 25 µM; in [4], over 25 µM; in assay [5] it was over 25 µM; in assay [6], 29.3 µM. In addition, the GI50 is over 25 µM in assay [7], over 25 µM in assay [8], over 100 µM in [9] and over 25 µM in assay [10]. Also, the TGI in assay [1], in assay [2], in assay [3], in [4], in assay [5] and in assay [6] was over 100 µM in each case. For the same compound, the TGI in assay [7], in [8], in [9] and in [10] was over 100 µM throughout.

For the compound `COc1ccc(-c2[nH]nc(N)c2-c2cc(OC)c3c(c2)OCO3)cc1`, the GI50 is 4.73 µM in [1]; 9.09 µM in assay [2]; 5.97 µM in assay [3]; 3.69 µM in [4]; 3.65 µM in [5]; 8.51 µM in [6]. Further, the GI50 in assay [7] is 3.8 µM; in assay [8], 3.92 µM; in [9] it was 1.97 µM; in [10], 8.42 µM. Also, the TGI was over 100 µM in assay [1]; over 100 µM in [2]; 31.4 µM in assay [3]; over 100 µM in assay [4]; 25.7 µM in assay [5]; 70.5 µM in assay [6]. For the same compound, the TGI turned out to be 52.3 µM in [7], 32.4 µM in assay [8], 18.1 µM in assay [9] and 60.1 µM in [10].

As for `Cc1ccc(/C=C/c2c(C(=O)/C=C/c3ccc(Cl)cc3)c(C)nc3ccccc23)cc1`, the GI50 in assay [1] is 2.45 µM; in assay [2] it was 1.86 µM; in assay [3], 1.49 µM; in [4], 1.45 µM; in assay [5], 2.05 µM; in assay [6], 1.03 µM. Moreover, the GI50 in assay [7] was 2.13 µM; in assay [8], 1.74 µM; in assay [9] it was 1.92 µM; in [10], 2.53 µM. The TGI was 6.85 µM in [1]; 4.53 µM in assay [2]; 2.96 µM in assay [3]; 3.97 µM in [4]; 14.9 µM in [5]; 2.38 µM in [6]. In addition, the TGI in [7] is 5.95 µM; in assay [8] it was 3.23 µM; in assay [9], over 100 µM; in assay [10], 4.84 µM.

For the compound `O=S(=O)(c1ccccc1)N1CN2CN(C1)CN(S(=O)(=O)c1ccccc1)C2`, the TGI in [1], in assay [2], in assay [3], in assay [4], in [5] and in assay [6] was over 100 µM each time. For the same compound, the TGI in assay [7], in [8], in [9] and in assay [10] was over 100 µM throughout.

For the compound `CC1CCC(=O)C(C(O)CC2CC(=O)N(c3ccccc3)C(=O)C2)C1` (centres undefined), the TGI in assay [1], in [2], in assay [3], in [5], in assay [6] and in [7] was over 100 µM throughout. The TGI in assay [8], in assay [9] and in assay [10] was over 100 µM in each case.

Regarding `CCN(CC)CC(=O)NC1c2ccccc2Oc2c(C)cccc21` (centres undefined), the TGI in assay [1], in [2], in assay [3], in assay [4], in [5] and in assay [6] was over 100 µM each time. For the same compound, the TGI in [7], in assay [9] and in assay [10] was over 100 µM throughout.
